Results as given in paper PMC5285380, “Differential Ability of Bovine Antimicrobial Cathelicidins to Mediate Nucleic Acid Sensing by Epithelial Cells” (Frontiers in Immunology, 2017).
Values after ≈ are worked out from the molar mass of the structure shown. Bridge positions count the residues as written; N and C are the ends. Ends that are not written are not given here. Peptide text beside a SMILES is read from it.

What was measured:
Type in all cases: cell-based
[1] = tested on: Streptococcus uberis M100/11
Text: (§1) All bacterial strains including S. aureus strains (M3842, M905-1, and M3850) ([22]), S. uberis strains (M100/11, BL246, and ALP8092) ([23]) and E. coli (9217/10) were isolated from bovine mastitis milk ([24]). All strains were maintained on Trypticase soy agar plates with 5% sheep blood (Becton Dickinson AG, Allschwil, Switzerland) and always freshly plated the day before the experiment. Bacterial colonies were suspended in 0.85% NaCl solution (Axon Lab AG, Baden, Switzerland) to reach an OD value of 0.5 (DensiCHECK PLUS, Biomérieux, Genève, Switzerland), corresponding to approximately 1–1.5 × 10^8 cell/ml. The minimum inhibitory concentration (MIC) of cathelicidins was determined by the broth microdilution method as previously described ([25]). Bacteria were further diluted to approximately 1 × 10^5 cells/ml in cation-adjusted Mueller-Hinton (MH) broth (Thermo Fisher Scientific). Several twofold peptide dilutions (40–0.3 µM) were prepared in a volume of 50 µl MH II broth (Becton Dickinson AG) in a round-bottom 96-well plate. Finally, 50 µl of 10^5 cells/ml were added to the peptide dilutions to reach a final concentration of 5 × 10^4 cells/ml.

[2] = tested on: Staphylococcus aureus M3850
Text: as §1

[3] = tested on: Staphylococcus aureus M3842
Text: as §1

[4] = tested on: Streptococcus uberis BL246
Text: as §1

[5] = tested on: Staphylococcus aureus M905-1
Text: as §1

[6] = tested on: Streptococcus uberis ALP8092
Text: as §1

Escherichia coli 9217/10 = tested on: Escherichia coli 9217/10
Text: as §1

[7] = tested on: Mx1 in primary bovine turbinate epithelial cells (BT cells); assay: Mx1 induction in BT cells (western blot), nucleic acid sensing; details: poly(I:C) alone, titration, 20 h, western blot (Figure S3)
Procedure: Primary bovine turbinate epithelial cells (BT cells) were obtained as previously described ([26]) and the cultures maintained in DMEM supplemented with 10% FBS, non-essential amino acids (NEAA), neomycin/bacitracin, penicillin/streptomycin (stock solutions purchased from Biochrom), and GlutaMAX (Thermo Fisher Scientific). BT cells were plated in 24-well plates at 50,000 cells/well and incubated for 18 h at 37°C in 5% CO2. For induction of Mx, cathelicidins were mixed with 100 ng/ml of poly(I:C) in a final volume of 1 ml, incubated for 10 min at room temperature, and then added to the cells. Alternatively, different dilutions of neutrophil-derived supernatants were mixed with poly(I:C) at 100 ng/ml in complete medium (DMEM with 10% FBS, NEAA, neomycin/bacitracin, penicillin/streptomycin, and GlutaMAX). Positive controls for Mx1 induction included cell treatment with 100 ng/ml of bovine rIFN-α and 1 µg/ml of poly(I:C). Cultures were further incubated at 37°C for 20 h. […]
Figure 5 Bovine myeloid antimicrobial peptide (BMAP)-27, sBAMP-27, BMAP-28, BMAP-34, and Bac1 promote nucleic acid sensing in primary epithelial cells. […] After 20 h incubation, Mx1 and β-actin were detected by western blot. […] After 20 h of culture, Mx1 and β-actin were detected by western blot. […]

bovine neutrophils = assay: ROS in neutrophils (CM-H2DCFDA flow cytometry); details: 100 ng/ml PMA for 10 min, then 1 h culture; three animals in duplicates
Procedure: Bovine neutrophil granulocytes were isolated as previously described with a few adaptations ([20], [21]). Bovine blood sampling was performed in compliance with the Swiss animal protection law and approved by the animal welfare committee of the Canton of Bern, Switzerland, license number BE102/15. Briefly, 200 ml of blood was drawn from the jugular vein of cows at the Clinic for Ruminants (Vetsuisse Faculty, University of Bern, Switzerland) and was directly mixed with citrate-based anti-coagulant Alsever’s solution (1.55 mM of C6H12O6, 408 mM of Na3C6H5O7⋅2H2O, 1.078 mM of NaCl, and 43 mM of C6H8O7, pH 6.2). […] Neutrophils were recovered in the pellet, washed once with PBS/EDTA, counted in Trypan blue solution, and resuspended at 5 × 10^7 cells/ml in RPMI 1640 medium (Biochrom GmbH, Berlin, Germany). […] Aliquots of 5 × 10^6 neutrophils per tube were used to quantify ROS. […]
Figure 6 Cathelicidins can be detected in the supernatants of phorbol myristate acetate (PMA)-activated neutrophils. […] (A) Forward and side scatter characteristics of neutrophils stimulated with PMA or left unstimulated were evaluated by flow cytometry (left). […] (B) Histogram overlay of CM-H2DCFDA fluorescence as an indicator of ROS formation. […]

Question: Which MIC [1] does the source give for “RFRPPIRRPPIRPPFYPPFRPPIRPPIFPPIRPPFRPPLGPFP [Bac5]” here?
Answer: Its MIC is 2.78 ± 0.83 µM.

Question: What about the MIC [2] of the same compound?
Answer: Its MIC is greater than 20 µM.

Question: And the MIC [3]?
Answer: The MIC was greater than 20 µM.

Question: What about the MIC [4] of the same compound?
Answer: Its MIC is 6.11 ± 2.2 µM.

Question: What about the MIC [5] of the same compound?
Answer: The MIC was greater than 20 µM.

Question: And the MIC [6]?
Answer: The MIC was 20.00 ± 0 µM.

Question: What about the MIC (Escherichia coli 9217/10) of the same compound?
Answer: Its MIC is greater than 20 µM.

Question: What does the source list for GLPKLHFRRKKGKLVSFPLKFKFKIRL [sBMAP-27]?
Answer: MIC [1]: 5.00 ± 0 µM; MIC [2]: 17.78 ± 4.41 µM; MIC [3]: ≥20 ± 10 µM; MIC [4]: 5.56 ± 1.67 µM; MIC [5]: 20.00 ± 0 µM; MIC [6]: 8.33 ± 2.5 µM; MIC (Escherichia coli 9217/10): 10.00 ± 0 µM

Question: Which “concentration of poly(I:C) below which induction of Mx1 was not detectable” value [7] does the source give for “Polyinosinic–polycytidylic acid [poly(I:C)]” here?
Answer: Its value is 156 ng/mL.

Question: What does the source list for GGLRSLGRKILRAWKKYGPIIVPIIRIG [BMAP-28]?
Answer: MIC [1]: 10.00 ± 0 µM; MIC [2]: 17.78 ± 4.41 µM; MIC [3]: 13.33 ± 5 µM; MIC [4]: 10.00 ± 0 µM; MIC [5]: 14.44 ± 5.27 µM; MIC [6]: 10.00 ± 0 µM; MIC (Escherichia coli 9217/10): 10.00 ± 0 µM

Question: Which MIC [1] does the source give for GRFKRFRKKFKKLFKKLSPVIPLLHLG [BMAP-27] here?
Answer: The MIC was 2.78 ± 0.83 µM.

Question: And the MIC [2]?
Answer: Its MIC is 7.22 ± 2.64 µM.

Question: And the MIC [3]?
Answer: Its MIC is 5.00 ± 0 µM.

Question: What about the MIC [4] of the same compound?
Answer: The MIC was 4.17 ± 1.25 µM.

Question: And the MIC [5]?
Answer: The MIC was 8.33 ± 2.5 µM.

Question: And the MIC [6]?
Answer: Its MIC is 4.72 ± 0.83 µM.

Question: What about the MIC (Escherichia coli 9217/10) of the same compound?
Answer: The MIC was 2.50 ± 0 µM.

Question: How did the MIC [1] turn out when `CC[C@H](C)[C@@H]1NC(=O)[C@H](CCCNC(=N)N)NC(=O)[C@@H](NC(=O)[C@H](CC(C)C)NC(=O)[C@@H](N)CCCNC(=N)N)CSSC[C@@H](C(=O)N[C@@H](CCCNC(=N)N)C(=O)O)NC(=O)[C@H](C(C)C)NC(=O)[C@H](CCCNC(=N)N)NC(=O)[C@H]([C@@H](C)CC)NC(=O)[C@H](C(C)C)NC(=O)[C@H](C(C)C)NC1=O` [Bac1] (H-RLCRIVVIRVCR-OH; disulfide 3-11) was run?
Answer: Its MIC is 13.33 ± 5 µM (≈ 19.8 µg/mL).

Question: And the MIC [2]?
Answer: The MIC was no less than 20 ± 6.67 µM.

Question: And the MIC [3]?
Answer: The MIC was greater than 20 µM.

Question: What about the MIC [4] of the same compound?
Answer: Its MIC is 20.00 ± 0 µM (≈ 29.7 µg/mL).

Question: What about the MIC [5] of the same compound?
Answer: Its MIC is greater than 20 µM.

Question: And the MIC [6]?
Answer: Its MIC is no less than 20 ± 10 µM.

Question: And the MIC (Escherichia coli 9217/10)?
Answer: Its MIC is greater than 20 µM.

Question: How did the “fluorescence intensity of CM-H2DCFDA (ROS indicator) compared to unstimulated neutrophils” value (bovine neutrophils) turn out when `CCCCCCCCCCCCCC(=O)O[C@@H]1[C@@H](C)[C@@]2(O)[C@@H](C=C(CO)C[C@]3(O)C(=O)C(C)=C[C@@H]23)[C@@H]2C(C)(C)[C@]12OC(C)=O` [PMA, phorbol myristate acetate] was run?
Answer: The value was “significantly higher”.

Question: For “AGLFRRLRDSIRRGQQKILEKARRIGERIKDIFRG [BMAP-34]”, which MIC [1] is on record?
Answer: Its MIC is 5.00 ± 0 µM.

Question: What about the MIC [2] of the same compound?
Answer: Its MIC is 10.00 ± 0 µM.

Question: What about the MIC [3] of the same compound?
Answer: The MIC was 12.22 ± 4.41 µM.

Question: What about the MIC [4] of the same compound?
Answer: The MIC was 4.17 ± 1.25 µM.

Question: And the MIC [5]?
Answer: Its MIC is 14.44 ± 5.27 µM.

Question: And the MIC [6]?
Answer: The MIC was 5.00 ± 0 µM.

Question: And the MIC (Escherichia coli 9217/10)?
Answer: Its MIC is 5.00 ± 0 µM.
